Laboratory results reported in patent US20100022637A1, “IDENTIFICATION OF ANTI-CANCER COMPOUNDS AND COMPOUNDS FOR TREATING HUNTINGTON'S DISEASE AND METHODS OF TREATMENT THEREOF” (THE TRUSTEES OF COLUMBIA UNIVERSITY IN THE CITY OF NEW YORK, priority 2005, published 2010).
Values after ≈ are worked out from the molar mass of the structure shown.

Columns and labels:
p53 = experiment: Western blot of p53 (p21, MDM2) levels; type: cell-based, human; conditions: RKO-E6 cells; in words
Description: Protein content was quantified using a BioRad protein assay reagent (BioRad, cat #500-0006). Equal amounts of protein were resolved on SDS-polyacrylamide gels. Proteins were transferred onto a PVDF membrane, blocked with 5% milk, and incubated with the appropriate primary and secondary antibodies. […] To test for equivalent loading in each lane, blots were stripped, blocked and probed with an anti-eIF-4E antibody.

RKO-E6 cells [1] = experiment: Flow cytometry cell cycle distribution, RKO-E6; type: cell-based, human; conditions: 24 h, propidium iodide
Description: RKO, RKO-E6 or HeLa cells were seeded in 20-cm dishes in 10 ml of growth medium. Cells were allowed to adhere and then treated with the selected compounds for 24 h. The treated cells were collected, washed 2× with PBS and counted. The cell pellet was re-suspended in 500 μl of ice cold PBS and 2-5 ml of cold 70% ethanol (−20° C.) were added. Cells were fixed for 1 h or overnight. 5-10 million cells were placed into a 15-ml conical tube and centrifuged at 1000 g. Cells were washed 2× with 1% calf serum in PBS. Cells were resuspended in 800 μl of 1% calf serum in PBS and 100 μl of Rnase (1 mg/ml) and 100 μl of propidium iodide (400 μg/ml) added. Cells were incubated at 37° C. for 30 min and then analyzed on flow cytometer.

RKO-E6 cells [2] = experiment: Alamar Blue viability assay, RKO-E6; type: cell-based, human
Description: RKO colon carcinoma, human (ATCC, order # CRL-2577), RKO-E6 colon carcinoma transfected with HPV E6 inserted in pCMV.3 (ATCC, order # CRL-2578) were grown in MEM with 2 mM L-glutamine and Earle's BBS adjusted to contain 1.5 g/L NaHCO3, 0.1 mM non-essential amino acids and 1.0 mM sodium pyruvate, and supplemented with 10% fetal bovine serum, penicillin and streptomycin (pen/strep). Both cell lines were incubated at 37° C. in a humidified incubator containing 5% CO2.
The Alamar Blue assay incorporates a fluorimetric/colorimetric growth indicator that changes color in the response to chemical reduction by viable cells (Nociari 1998). Cells were seeded at a density of 3,000 cells (57 μl) per well in a 384-well black, clear-bottom plates using a syringe bulk dispenser (Zymark Sciclone ALH). Three microliters were removed from a compound daughter plate using a 384 fixed cannula head and added to the assay plate, making the final concentration 4 μg/ml. The plates were incubated for 24 h at 37° C. 10 μl of 40% Alamar Blue (Biosource Int., cat #DAL1100) solution in media was added to each well (1:10 dilution). The assay plates were incubated for 16h. Fluorescence intensity was determined using a Packard Fusion platereader with a 535 nm excitation filter and a 590 nm emission filter. The average fluorescence for the whole plate was used as a positive control. Average percentage inhibition for each well was determined using our freely available SLIMS software (Kelley et al., 2004).
The daughter plates for the 2-fold dilution series were prepared with a Zymark Sciclone ALH by diluting the replica daughter plates to obtain compound concentrations from 8 μg/ml-0.008 μg/ml (columns 8-18). Columns 1-7 were used as untreated control. RKO-E6 cells were seeded at the density of 3,000 per well in 55 μl, and 5 μl were added from the daughter plate. RKO cells were seeded at the density of 2,000 per well in 55 μl, and 5 μl were added from the daughter plate. The assay was incubated for 24 h at 37° C. 10% Alamar Blue was added to each well and the assay was incubated for 16 h (see above). Compounds for retesting were purchased from the manufacturers or from Sigma-Aldrich (see above). Stocks were prepared in DMSO at 4 mg/ml.
Each cell line (RKO, RKO-E6, HeLa and TC32) was treated with a dose combination matrix of doxorubicin and a selected hit compound. Each treatment was done in a triplicate in 384-well format. The average percent inhibition of cell proliferation, measured with Alamar Blue, was determined using the following formula: […]

N548 mutant cells = experiment: in vitro; conditions: for selectivity profile of cell death rescue in panel of htt expressing cell lines: N63, N548, FL htt cell lines, in words; for maximal fold induction: 72 h, read-out: N548 Mut: Max, maximum rescue expressed as fold over DMSO treated N548 mutant cells; for EC50: read-out: EC50 based on activity in N548 mutant cells
Description: Embryonic rat striatal neurons were conditionally immortalized by stably transfecting a temperature-sensitive SV40 large T-antigen (T-ag) to generate the ST14A cell line. ST14A cells proliferate at the permissive temperature (33° C.), but stop dividing at 39° C., as a result of T-ag degradation. […] As htt protein context modulates polyQ toxicity, testing these different length htt proteins could provide insight into the basis for context dependence.
ST14A Assay System: Calcein acetoxylmethyl ester (AM) (Molecular Probes, Eugene, Oreg.) is a non-fluorescent, membrane-permeable compound that is cleaved by intracellular esterases, which subsequently forms the anionic, fluorescent compound, calcein, that cannot permeate the cell membrane. […] A fluorescence viability assay, that is based on conversion of a non-fluorescent substrate (calcein AM) to a fluorescent product by nonspecific esterases in live cells, was employed to monitor cell death in wild type (wt) ST14A-Htt and mut ST14A-Htt cell lines. Cell death is indicated by a decrease in fluorescence. […] 3 μl of each compound was transferred from daughter plates to triplicate assay plates for a final assay concentration of 4 μg/ml in 0.1% DMSO (10 μM for NINDS compounds). Cells were incubated at 33° C. for 3 h to enhance attachment and then shifted to 39° C. (with 5% CO2). After 3 days (d), cells were washed 10 times with phosphate buffered saline (PBS) leaving 20 μl residual PBS per well, and 20 μl of 2 μg/ml calcein AM (Molecular probes) in PBS was added per well. […] The fluorescence intensity in each well was normalized to the median of each plate. The median normalized fluorescence of each triplicate assay wells was determined. A well with more than 50% increase in intensity above the median signal intensity was considered a “hit.”
Assay Development: An assay was developed for detecting mutant htt-induced cell death in ST14A cells in a 384-well plate format. A calcein AM-based method was used to detect cell viability, and optimized the cell number and time course for this method. […] A cell number titration was performed to determine the cell density at which calcein fluorescence was not saturated and the coefficient of variation (CV) was low (FIG. 14A-B). A low CV is critical for a high-throughput assay as it decreases noise and enhances sensitivity. […] Next, the kinetics of the fluorescence signal were determined.
Next, the serum concentrations that induce cell death in these cells were determined. Cells were seeded in decreasing serum (IFS) concentrations (5 to 0%), and cell viability was assayed after 3 d using the calcein AM assay (FIG. 14E).
A Z′ value of greater than 0 is required for a usable assay, with a maximum value of 1.0 for an ideal assay. For the assay, calcein fluorescence was used on the day of seeding to represent 100% rescue. The difference in calcein fluorescence signal on the day of seeding and after different number of days under serum deprivation was determined and used to calculate the Z′ factor. […] About 47,000 compounds were assayed in a 384-well plate format in triplicate to enhance the reliability of the primary screen.

[3] = system: ASH neurons in C. elegans HD model (pqe-1; Htn-Q150); experiment: Neuronal survival assay, worm HD model; type: in vivo; conditions: 2 d after treatment, revertin-2 0.8 mg/ml, revertin-1a 1 mg/ml, p<0.02
Description: One hundred synchronized L1 worms (pqe-1; Htn-Q150) (Faber P., et al, Proc Natl Acad Sci 99: 17131-6; Wood W., Cold Spring Harbor Laboratory, NY) were added to 5 wells (20 worms/well). Each well contained 50 μl food suspension (6.6 O.D.) pre-mixed with compound or DMSO in a 96-well plate. Worms were incubated for 2 d at 15° C., washed in S-media, immobilized with 5 mM sodium azide on a microscopic glass slide and GFP fluorescence was examined using an Axoplan2 fluorescence microscope (ex 485/em 535 nm). Live (GFP positive) Anterior Sensory Horn (ASH) neurons were counted in at least 50 worms (100 neurons). Data were subjected to a two-tailed Student t-test.
Worm HD Model. A C. elegans model of HD was optimized for testing compounds. In this model, larval ASH neurons that express mutant htt in a poly Q enhancer-1 mutant background, die over 2-3 days after hatching (Faber P, et al, Proc Natl Acad Sci USA 2002, 99: 17131-6). Neuronal death was monitored by loss of GFP expression in ASH neurons. Since the effective concentration of compounds in worms can vary widely from those in cell culture, concentrations to test in worms were based on an assay (FIG. 19). The effective concentrations in worms for all compounds were determined and tested for rescue of neuronal cell death. […] Thus, the ST14A cell culture model can be used to identify compounds that are active in in vivo models of HD. […] Compounds in this series were active in both the worm and PC12 HD models (FIG. 18B-C). The revertin-1 series has certain features making it an attractive candidate for lead development including different analogues that are active, a low molecular weight (˜400) making it likely that it can cross the blood brain barrier; furthermore, it is synthetically tractable.

[4] = system: PC12 expressing Q103 exon 1 htt; experiment: PC12 HD model, Alamar Blue viability; type: cell-based; conditions: for EC50: Rattus norvegicus, PC-12, unit inferred; for PC12 rescue: percent increase in viability in compound treated cells above DMSO treated: — = no activity in the assay (footnote n.a.)
Description: For enhanced stability the repeat portion consists of alternating CAG/CAA repeats. […] Mutant (mut) htt was induced by the ecdysone receptor agonist, tebufenozide.
For the PC12 assay, 7500 cells/well were plated in 384-well plates in 57 μl of PC12 medium with tebufenozide (1 μM). Compounds (3 μl) from daughter plates were added to the cells and incubated at 37° C. After 48 h, 20 μl of 40% Alamar Blue (Biosource, CA) in PC12 media was added per well and cells incubated for 12 h at 37° C. […] Fluorescence intensity was determined using a Packard Fusion plate reader with an excitation filter centered on 535 nm and an emission filter centered on 590 nm. Average percentage inhibition at each concentration was calculated.

[5] = system: microtubules in N548 mutant cells; experiment: β-tubulin indirect immunofluorescence; type: cell-based, rat; conditions: colchicine 400 nM, revertin-22 4 μg/ml, 8 h
Description: Cells were grown on glass coverslips in 10% IFS-containing media, treated with compounds and fixed in acetone/methanol (1:1 vol/vol). β-tubulin was detected using a mouse monoclonal antibody (clone TUB2.1, Sigma-Aldrich) followed by a rhodamine-conjugated goat anti-mouse antibody (Jackson Laboratory; Bar Harbor, Me.). Cells were viewed under a fluorescent microscope (ex 530/em 595 nm).

With `CC(C)(C)CC(C)(C)c1ccc(OCCOCC[N+](C)(C)Cc2ccccc2)cc1` [benzethonium chloride] the “p53, p21, MDM2 levels” value (p53) was “did not upregulate p53, p21, or caspase 3” and the “cell cycle effect in RKO-E6 cells” value (RKO-E6 cells [1]) was “did not induce cell cycle arrest”.

`COc1cccc2c1C(=O)c1c(O)c3c(c(O)c1C2=O)C[C@@](O)(C(=O)CO)C[C@@H]3O[C@H]1C[C@H](N)[C@H](O)[C@H](C)O1` [doxorubicin] was tested, and the “p53, p21, MDM2 levels” value (p53) was “caused p53 to accumulate”, the “resistance of RKO-E6 cells compared to RKO cells” value (RKO-E6 cells [2]) was “two-fold to four-fold more resistant” and the inhibition at 0.5 µg/mL (RKO-E6 cells [2]; Homo sapiens, RKOE6, 0.5 μg/ml alone, 24 h, read-out: growth inhibition by drug alone) was 20%.

`CCCc1cc(OC(=O)c2ccccc2F)n(-c2cccc(F)c2)n1` [revertin-1a] was tested, and the “selectivity profile of cell death rescue in panel of htt expressing cell lines” value (from here on “selectivity profile of cell death rescue”) (N548 mutant cells) was “selectively rescued cell death in all mutant htt-expressing cell lines”, the maximal fold induction (N548 mutant cells; Rattus norvegicus) was 2.5 and the EC50 (N548 mutant cells; Rattus norvegicus) was 4 µg/mL. The “ASH neuronal cell survival” value [3] was “enhance ASH neuronal cell survival”, the EC50 [4] was 50 µg/mL (≈ 146 µM) and the “PC12 rescue: percent increase in viability in compound treated cells above DMSO treated” value [4] was 21%.

For `COc1c2c(cc3c1C(CC(=O)/C=C/c1ccco1)[N+](C)(C)CC3)OCO2` (centres unmarked) [revertin-2], the “selectivity profile of cell death rescue” value (N548 mutant cells) was “protective in all three mutant htt versions”, the maximal fold induction (N548 mutant cells; Rattus norvegicus) was 4 and the EC50 (N548 mutant cells; Rattus norvegicus) was 3 µg/mL. The “ASH neuronal cell survival” value [3] was “enhance ASH neuronal cell survival”, the “ASH neuronal cell survival” value ([3]; listed as rev-2) was “rescued ASH neuronal cell death” and the EC50 [4] was 13 µg/mL. The “PC12 rescue: percent increase in viability in compound treated cells above DMSO treated” value [4] was 34%.

In the case of `COc1cc2c(cc1OC)C(C)N(C(=O)NCc1ccccc1)CC2` (centres unmarked) [revertin-22], the “selectivity profile of cell death rescue” value (N548 mutant cells) is reported as “shared the selectivity profile with MTIs”, the maximal fold induction (N548 mutant cells; Rattus norvegicus) is reported as 2.5 and the EC50 (N548 mutant cells; Rattus norvegicus) is reported as 1 µg/mL. The microtubule disruption [5] was “depolymerize microtubules”.

`CC1CN(C(C)c2nc3ccccc3c(=O)n2-c2ccc(F)cc2)CCC1C(=O)C1CC1` (centres unmarked) [revertin-23] was tested, and the “selectivity profile of cell death rescue” value (N548 mutant cells) was “shared the selectivity profile with MTIs”, the maximal fold induction (N548 mutant cells; Rattus norvegicus) was 2.5 and the EC50 (N548 mutant cells; Rattus norvegicus) was 2 µg/mL. For the same compound, the microtubule disruption [5] was “disrupt microtubules”.

In the case of Colchicine [reference compound], the “N548 Mut: Max, maximum rescue expressed as fold over DMSO treated N548 mutant cells” value (N548 mutant cells; 0.5% IFS, 39° C., 3 d) is reported as 2.5 fold, the “selectivity profile of cell death rescue” value (N548 mutant cells) is reported as “rescued cell death in three htt expressing cell lines” and the EC50 (N548 mutant cells) is reported as 40 nM. The microtubule disruption [5] was “depolymerize microtubules”.

With benzalkonium chloride the “p53, p21, MDM2 levels” value (p53) was “did not upregulate p53, p21, or caspase 3”, the “cell cycle effect in RKO-E6 cells” value (RKO-E6 cells [1]) was “did not induce cell cycle arrest” and the “effect on doxorubicin's lethality in RKO-E6 cells” value (RKO-E6 cells [2]; co-treatment with 0.5 μg/ml doxorubicin, 24 h, in words) was “selectively increased doxorubicin's lethality”. The “effect on camptothecin's lethality” value (RKO-E6 cells [2]; co-treatment with camptothecin, in words) was “did not synergize with camptothecin” and the induction of apoptosis (RKO-E6 cells [2]; in the absence of doxorubicin) was “did not induce apoptosis”.
